# In patent US8906966B2, “Medicaments containing panthenol” (priority 2006, dated 2014):
# What was measured:
# Type in all cases: in vivo, human
# [1] = tested on: patients treated for traumatic inflammatory conditions; test: Pain relief following intra-articular or peri-articular injection, Example 1; details: for Outcome: Improved (%) / Outcome: Improved n / Outcome: No change (%) / Outcome: No change n / Outcome: Not reported (%) / Outcome: Not reported n / Outcome: Temporarily improved (%) / Outcome: Temporarily improved n / Outcome: Worsened (%) / Outcome: Worsened n: 1 g dexpanthenol + 1 ml 0.1% bupivacaine intra- or peri-articular
# Experimental: 62 patients ([…]) aged 21 to 85 years were treated for traumatic inflammatory conditions. The patients were administered one or more intra-articular or peri-articular injections, i.e., into the inflamed joint or nearby area, of dexpanthenol in combination with a long acting local anesthetic [4 ml of an aqueous solution of dexpanthenol Ph Eur (equal to 1 g of dexpanthenol); 1 ml of 0.1% bupivacaine]. In terms of pain relief following injection, efficacy outcome of the treatment is shown in the table below: Injection of facet joints has previously almost invariably been done using MRI to ensure exact placing of the needle. […] By palpating the patient's back in the area of pain and spasm, there is often an area of extreme tenderness about 5 cms from the midline, indicating the site of the inflamed facet joints. If a needle is inserted at right angles into this area, it will be located in or exceedingly close to the facet joint.
# [2] = tested on: patients treated for traumatic inflammatory conditions; test: Safety and tolerability from case notes of the 62 patients, Example 1
# Experimental: 62 patients ([…]) aged 21 to 85 years were treated for traumatic inflammatory conditions. The patients were administered one or more intra-articular or peri-articular injections, i.e., into the inflamed joint or nearby area, of dexpanthenol in combination with a long acting local anesthetic [4 ml of an aqueous solution of dexpanthenol Ph Eur (equal to 1 g of dexpanthenol); 1 ml of 0.1% bupivacaine].
# Five (8%) of the 62 patients reported adverse events, including numbness and injection site pain, which resolved with time.
# [3] = tested on: inflamed joint; test: Patient response to a program of injections into or outside the inflamed joint (description)
# Experimental: In some embodiments, a typical dose is an aqueous solution (about 2 milliliters) containing about 500 mg of panthenol (e.g., dexpanthenol) or an aqueous solution (about 4 milliliters) containing about 1000 mg of panthenol (e.g., dexpanthenol). Lower doses can also be used (e.g., 250 mg of panthenol). The aqueous solution can be injected directly into the site of the inflamed joint or outside of the joint as described herein. A program of injections is generally desirable in which dosages similar to that indicated above are given at intervals of a few days (e.g., 2, 3, 4, 5, or 6 days) to about one week. Reduced inflammation and increased freedom of movement is typically noticeable within 48 hours from the initial injection. Using the 1000 mg dose, patients have reported an estimated 80% reduction of pain after the first injection. In certain embodiments, for larger doses (e.g., ≧1000 milligrams), the active ingredient can be provided in two or more closely spaced (e.g., from about 5 minutes to about 1 hour) and smaller doses (e.g., each independently about 400, about 500, or about 600 milligrams).
# [4] = Total of all sites of complaint, n 98
# [5] = site of complaint Back (post-traumatic spondylitis), n 54
# [6] = where outcome reported, cohort of 62 patients, with bupivacaine
# [7] = of the 62 patients, numbness and injection site pain, resolved with time, with bupivacaine
compound,measurement,setting,value
CC(C)(CO)[C@@H](O)C(=O)NCCCO [dexpanthenol],Outcome: Improved (%),[1]; [4],50.0%
same,Outcome: Improved n,[1]; [4],49 n
same,Outcome: No change (%),[1]; [4],10.2%
same,Outcome: No change n,[1]; [4],10 n
same,Outcome: Not reported (%),[1]; [4],20.4%
same,Outcome: Not reported n,[1]; [4],20 n
same,Outcome: Temporarily improved (%),[1]; [4],13.2%
same,Outcome: Temporarily improved n,[1]; [4],13 n
same,Outcome: Worsened (%),[1]; [4],6.1%
same,Outcome: Worsened n,[1]; [4],6 n
same,effectiveness of injection adjacent to the facet joint versus directly into the joint,"[1]; facet joints, injection without MRI",equally effective
same,Outcome: Improved (%),[1]; [5],55.6%
same,Outcome: Improved n,[1]; [5],30 n
same,Outcome: No change (%),[1]; [5],11.1%
same,Outcome: No change n,[1]; [5],6 n
same,Outcome: Not reported (%),[1]; [5],16.7%
same,Outcome: Not reported n,[1]; [5],9 n
same,Outcome: Temporarily improved (%),[1]; [5],11.1%
same,Outcome: Temporarily improved n,[1]; [5],6 n
same,Outcome: Worsened (%),[1]; [5],5.6%
same,Outcome: Worsened n,[1]; [5],3 n
same,Outcome: Improved (%),"[1]; site of complaint Hip, n 22",40.9%
same,Outcome: Improved n,"[1]; site of complaint Hip, n 22",9 n
same,Outcome: No change (%),"[1]; site of complaint Hip, n 22",9.1%
same,Outcome: No change n,"[1]; site of complaint Hip, n 22",2 n
same,Outcome: Not reported (%),"[1]; site of complaint Hip, n 22",22.7%
same,Outcome: Not reported n,"[1]; site of complaint Hip, n 22",5 n
same,Outcome: Temporarily improved (%),"[1]; site of complaint Hip, n 22",18.2%
same,Outcome: Temporarily improved n,"[1]; site of complaint Hip, n 22",4 n
same,Outcome: Worsened (%),"[1]; site of complaint Hip, n 22",9.1%
same,Outcome: Worsened n,"[1]; site of complaint Hip, n 22",2 n
same,Outcome: Improved (%),"[1]; site of complaint Knee, n 8",62.5%
same,Outcome: Improved n,"[1]; site of complaint Knee, n 8",5 n
same,Outcome: No change (%),"[1]; site of complaint Knee, n 8",12.5%
same,Outcome: No change n,"[1]; site of complaint Knee, n 8",1 n
same,Outcome: Not reported (%),"[1]; site of complaint Knee, n 8",25.0%
same,Outcome: Not reported n,"[1]; site of complaint Knee, n 8",2 n
same,Outcome: Temporarily improved (%),"[1]; site of complaint Knee, n 8",0 (0) %
same,Outcome: Temporarily improved n,"[1]; site of complaint Knee, n 8",0 (0) n
same,Outcome: Worsened (%),"[1]; site of complaint Knee, n 8",0 (0) %
same,Outcome: Worsened n,"[1]; site of complaint Knee, n 8",0 (0) n
same,Outcome: Improved (%),"[1]; site of complaint Other, n 14",35.7%
same,Outcome: Improved n,"[1]; site of complaint Other, n 14",5 n
same,Outcome: No change (%),"[1]; site of complaint Other, n 14",7.1%
same,Outcome: No change n,"[1]; site of complaint Other, n 14",1 n
same,Outcome: Not reported (%),"[1]; site of complaint Other, n 14",28.6%
same,Outcome: Not reported n,"[1]; site of complaint Other, n 14",4 n
same,Outcome: Temporarily improved (%),"[1]; site of complaint Other, n 14",21.4%
same,Outcome: Temporarily improved n,"[1]; site of complaint Other, n 14",3 n
same,Outcome: Worsened (%),"[1]; site of complaint Other, n 14",7.1%
same,Outcome: Worsened n,"[1]; site of complaint Other, n 14",1 n
same,patients who said that their condition had worsened,[1]; [6],less than 10%
same,share of all patients who benefited from pain relief,[1]; [6],about three-quarters
same,safety and tolerability,"[2]; injections into the joint or nearby area, in combination with bupivacaine, 62 patients",generally safe and well tolerated
same,patients who reported adverse events (%),[2]; [7],8%
same,patients who reported adverse events (number),[2]; [7],Five
CC(C)(CO)[C@@H](O)C(=O)NCCCO [panthenol],reduction of pain reported by patients,"[3]; 1000 mg dose, after the first injection, estimated",~80%
same,time until reduced inflammation and increased freedom of movement is noticeable,"[3]; from the initial injection, typical doses 500 mg or 1000 mg in aqueous solution",≤ 48 h
